We go through 36 molecules from patent US12234211B2, “Cycloolefin substituted heteroaromatic compounds and their use” (HUTCHISON MEDIPHARMA LIMITED, priority 2017, dated 2025).

Bounds are passed on as bounds.

One assay concerns the target T1, IDH2-R140Q (Homo sapiens, UniProt P48735, R140Q).
T1 construct: expressed in transfected cells
T1 sequence (P48735 40-452 R140Q): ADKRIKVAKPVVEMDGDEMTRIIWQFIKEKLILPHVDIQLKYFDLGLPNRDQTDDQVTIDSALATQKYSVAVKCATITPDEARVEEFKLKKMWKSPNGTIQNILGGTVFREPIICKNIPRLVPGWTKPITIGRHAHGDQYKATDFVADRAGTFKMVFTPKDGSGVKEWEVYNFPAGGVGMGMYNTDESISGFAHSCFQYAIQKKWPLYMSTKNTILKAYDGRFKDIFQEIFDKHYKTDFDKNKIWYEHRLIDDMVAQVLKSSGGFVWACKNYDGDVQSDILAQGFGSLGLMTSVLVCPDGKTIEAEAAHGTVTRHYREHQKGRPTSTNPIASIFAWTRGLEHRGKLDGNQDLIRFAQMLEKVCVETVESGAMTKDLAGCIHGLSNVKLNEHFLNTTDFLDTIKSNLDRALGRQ
As to the kind of experiment: Fluorescent determination of IDH2-R140Q cell activity (2-HG in U87MGR140Q cells). It is filed as cell-based. Conditions: 72 hours incubation, read-out: IC50 (2-HG inhibition). The protocol: Enzyme reaction solution: 1 mM nicotinamide adenine dinucleotide (NAD), 0.6 ng/μL D-2-hydroxyglutarate dehydrogenase (D2HGDH), 0.8 U/mL lipoamidase dehydrogenase (Diaphorase) and 60 μM Resazurin in 40 mM Tris.HCl pH 8.8 assay buffer.
Standard curve stock solution: The standard of 2-HG sodium salt was serially diluted in serum-free MEM medium to make a standard curve stock solution.
100 μL of U87MGR140Q cells were seeded at a density of 6×10^4/mL per well in a 96-well plate a.
From each well of 96-well plate a, 50 μL of the culture supernatant was transferred to the corresponding well of 96-well plate b; at the same time, 50 μL of standard curve stocking solution was added to other wells of 96-well plate b. Then 10 μl of 360 mM hydrochloric acid was added to all the wells. After shaking and mixing, the plate was placed on ice for 10 minutes, and then 10 μl of 420 mM Tris-base was added. After shaking and mixing, the plate was placed on ice for additional 5 minutes. Then the plate was centrifuged at 2500 rpm for 10 minutes.
After centrifuging, from each well of 96-well plate b, 20 μL of the supernatant was transferred to 96-well plate c. An additional 80 μL of the enzyme reaction solution was added to each well and incubated at 25° C. for 90 minutes.
A standard curve of the fluorescence value vs. the corresponding 2-HG concentration was made, and the 2-HG concentration corresponding to each concentration point of the compound was calculated, then the inhibition ratio was calculated, and the data was analyzed using XLfit5 (ID Business Solutions Limited) software to obtain the IC50 value.
The inhibition ratio was calculated as follows: Inhibition Ratio (IH %)=(1-2-HG concentration of test compound treated cells/2-HG concentration of control cells)×100%.

The next assay has as its target T2, IDH1-R132H (Homo sapiens, UniProt O75874, R132H).
T2 construct: expressed in transfected cells; host or cells: U87MG cells (U87MGR132H)
As to the kind of experiment: Fluorescent determination of IDH1-R132H cell activity (2-HG in U87MGR132H cells). Conditions: 2-HG inhibition in U87MGR132H cells transfected with IDH1-R132H mutant plasmid. The class given is cell-based.

T2 sequence (O75874 whole entry R132H): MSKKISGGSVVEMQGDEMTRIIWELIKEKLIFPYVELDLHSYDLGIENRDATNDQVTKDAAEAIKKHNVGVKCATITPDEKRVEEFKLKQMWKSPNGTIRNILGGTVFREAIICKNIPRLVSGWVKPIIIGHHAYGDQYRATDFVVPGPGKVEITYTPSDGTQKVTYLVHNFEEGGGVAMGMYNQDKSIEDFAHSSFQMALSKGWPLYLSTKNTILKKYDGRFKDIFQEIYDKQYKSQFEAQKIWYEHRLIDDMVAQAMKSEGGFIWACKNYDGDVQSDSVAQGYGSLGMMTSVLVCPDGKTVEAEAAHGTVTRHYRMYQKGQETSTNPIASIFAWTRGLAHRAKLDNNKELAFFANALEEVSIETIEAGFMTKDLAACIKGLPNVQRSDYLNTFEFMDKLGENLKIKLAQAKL

On to `C[C@H](Nc1nc(NCC(F)(F)F)nc(C2=C(F)C(O)C(F)(F)CC2)n1)C(F)(F)F` (mixture of isomers) [Compound 270], for which the IC50 at IDH2-R140Q came to 109 nM; against IDH1-R132H it was 2850 nM.
On the same counts, the results for `CCCNc1nc(N[C@H](C)C(F)(F)F)nc(C2=C(F)C(O)[C@@H](F)CC2)n1` (stereo partly drawn) [Compound 231] are 37 nM and 1530 nM.
For `[2H]C1(O)C(F)=C(c2nc(NOC(C)(C)C)nc(Nc3ccnc(C(F)(F)F)c3)n2)CCC1(F)F` (stereo not drawn) [Compound 276] the same measures were 81 nM and 8370 nM.
For `CC(C)(C)ONc1nc(Nc2cc(C(F)(F)F)ncn2)nc(C2=C(F)C(O)CCC2)n1` (stereo not drawn) [Compound 75] the same measures were 218 nM and over 10000 nM.
Take `CCCNc1nc(N[C@H](C)C(F)(F)F)nc(C2=C(F)C(O)[C@H](F)CC2)n1` (single isomer, unassigned) [Compound 230]: the IC50 was 658 nM on IDH2-R140Q and over 10000 nM against IDH1-R132H.
On the same counts, the results for `CC(C)Nc1nc(NC2CC(F)(F)C2)nc(C2=C(F)C(O)CCC2)n1` (stereo not drawn) [Compound 51] are 125 nM and 6040 nM.
With `C[C@@H](Nc1nc(N[C@H](C)C(F)(F)F)nc(C2=C(F)C(O)C(F)CC2)n1)C(F)(F)F` (stereo partly drawn) [Compound 269, 3-(4,6-Bis(((R)-1,1,1-trifluoropropan-2-yl)amino)-1,3,5-triazin-2-yl)-2,6-difluorocyclohex-2-en-1-D-1-ol], the values for the IC50 on IDH2-R140Q and against IDH1-R132H were 137 nM and 296 nM, respectively.
On to `C[C@H](Nc1nc(N[C@@H](C)C(F)(F)F)nc(C2=C(F)C(O)CCC2)n1)C(F)(F)F` (mixture of isomers) [Compound 14], for which the values for the IC50 at IDH2-R140Q and on IDH1-R132H were 230 nM and 1330 nM, respectively.
Consider `C[C@@H](CF)Nc1nc(N[C@H](C)C(F)(F)F)nc(C2=C(F)C(O)CCC2)n1` (mixture of isomers) [Compound 170], for which the IC50 on IDH2-R140Q came to 1380 nM; against IDH1-R132H, 6930 nM.
In the case of `C[C@@H](Nc1nc(N[C@H](C)C(F)(F)F)nc(C2=C(F)C(O)C(F)CC2)n1)C(F)(F)F` (stereo partly drawn) [Compound 266, 3-(4,6-Bis(((R)-1,1,1-trifluoropropan-2-yl)amino)-1,3,5-triazin-2-yl)-2,6-difluorocyclohex-2-en-1-D-1-ol], the IC50 at IDH2-R140Q was 33 nM; against IDH1-R132H, 43 nM.
Regarding `C[C@H](Nc1nc(N[C@H](C)C(F)(F)F)nc(C2=C(F)C(O)CCC2)n1)C1CC1` (mixture of isomers) [Compound 8], the IC50 at IDH2-R140Q came to 216 nM; on IDH1-R132H, 1220 nM.
`CC(C)Nc1nc(Nc2ccc3c(cnn3C)c2)nc(C2=C(F)C(O)CCC2)n1` (stereo not drawn) [Compound 64]: the IC50 was 1630 nM at IDH2-R140Q and over 10000 nM against IDH1-R132H.
For `C[C@@H](Nc1nc(N[C@H](C)C(F)(F)F)nc(C2=C(F)C(O)CCC2)n1)c1ccccc1` (mixture of isomers) [Compound 152, 2-Fluoro-3-(4-(((R)-1-phenylethyl)amino)-6-(((R)-1,1,1-trifluoropropan-2-yl)amino)-1,3,5-triazin-2-yl)cyclohex-2-en-1-ol] the same measures were 300 nM and 2010 nM.
On the same counts, the results for `CCCNc1nc(N[C@H](C)C(F)(F)F)nc(C2=C(F)C(O)CCC2)n1` (stereo partly drawn) [Compound 81] are 99 nM and 3570 nM.
As for `OC1C(F)=C(c2nc(NOCC3CC3)nc(Nc3ccnc(C(F)(F)F)c3)n2)CCC1(F)F` (stereo not drawn) [Compound 213], the IC50 at IDH2-R140Q was 38 nM; at IDH1-R132H, over 10000 nM.
For `C[C@H](CF)Nc1nc(N[C@H](C)C(F)(F)F)nc(C2=C(F)C(O)CCC2)n1` (mixture of isomers) [Compound 169] the same measures were 738 nM and 9460 nM.
For `C[C@H](Nc1nc(N[C@@H](C)C(F)(F)F)nc(C2=C(F)C(O)C(F)(F)CC2)n1)C(F)(F)F` (mixture of isomers) [Compound 283] the same measures were 174 nM and 1320 nM.
On the same counts, the results for `[2H]C1(O)C=C(c2nc(N[C@H](C)C(F)(F)F)nc(N[C@H](C)C(F)(F)F)n2)CCC1(F)F` (mixture of isomers) [Compound 282] are 343 nM and 444 nM.
Regarding `[2H]C([2H])([2H])C([2H])(Nc1nc(N[C@H](C)C(F)(F)F)nc(C2=C(F)C(O)CCC2)n1)C([2H])([2H])[2H]` (stereo partly drawn) [Compound 52], the IC50 at IDH2-R140Q stood at 229 nM; at IDH1-R132H, 2240 nM.
For `Cc1cc(Nc2nc(NOC(C)(C)C)nc(C3=C(F)C(O)CCC3)n2)ccn1` (stereo not drawn) [Compound 204] the same measures were 209 nM and over 10000 nM.
On the same counts, the results for `C[C@@H](Nc1nc(NCCF)nc(C2=C(F)C(O)CCC2)n1)C(F)(F)F` (stereo partly drawn) [Compound 240] are 984 nM and over 10000 nM.
On to `C[C@H](Nc1nc(N[C@H](C)C(F)(F)F)nc(C2=C(F)C(O)C(F)(F)CC2)n1)C(F)(F)F` (stereo partly drawn) [Compound 277], for which the IC50 at IDH2-R140Q came to 156 nM; at IDH1-R132H, 1030 nM.
On the same counts, the results for `OC1C(F)=C(c2nc(Nc3ccnc(C(F)(F)F)c3)nc(N3CCC(F)(F)C3)n2)CCC1(F)F` (stereo not drawn) [Compound 218] are 381 nM and over 10000 nM.
On the same counts, the results for `CC(C)[C@H](C)Nc1nc(N[C@H](C)C(F)(F)F)nc(C2=C(F)C(O)CCC2)n1` (mixture of isomers) [Compound 167] are 327 nM and 3170 nM.
For `C[C@@H](Nc1nc(N[C@H](C)C(F)(F)F)nc(C2=C(F)C(O)CCC2)n1)C1CC1` (mixture of isomers) [Compound 158] the same measures were 278 nM and 1520 nM.
For the molecule `C[C@@H](Nc1nc(N[C@H](C)C(F)(F)F)nc(C2=C(F)C(=O)C(F)(F)CC2)n1)C(F)(F)F` [Compound 296], the figures for the IC50 at IDH2-R140Q and on IDH1-R132H were 423 nM and 1140 nM, respectively.
For `C[C@@H](Nc1nc(NCC(F)(F)F)nc(C2=C(F)C(O)CCC2)n1)C(F)(F)F` (stereo partly drawn) [Compound 79] the same measures were 106 nM and 1300 nM.
As for `CC(C)(C)ONc1nc(Nc2cc(Cl)ccn2)nc(C2=C(F)C(O)CCC2)n1` (stereo not drawn) [Compound 61], the IC50 was 170 nM at IDH2-R140Q and over 10000 nM on IDH1-R132H.
On the same counts, the results for `C[C@@H](Nc1nc(N[C@H](C)C(F)(F)F)c(F)c(C2=CC(O)CCC2)n1)C(F)(F)F` (mixture of isomers) [Compound 207, 3-(5-fluoro-2,6-bis(((R)-1,1,1-trifluoropropan-2-yl)amino)pyrimidin-4-yl)cyclohex-2-en-1-ol] are 564 nM and 1510 nM.
For `C[C@H](Nc1nc(N[C@H](C)C(F)(F)F)nc(C2=C(F)C(O)CCC2)n1)c1ccccc1` (mixture of isomers) [Compound 157] the same measures were 141 nM and 4350 nM.
For `C[C@@H](Nc1nc(NCC2CC(F)(F)C2)nc(C2=C(F)C(O)CCC2)n1)C(F)(F)F` (mixture of isomers) [Compound 13] the same measures were 373 nM and 2080 nM.
As for `C[C@@H](Nc1nc(N[C@H](C)C(F)(F)F)nc(C2=C(F)C(O)C(Cl)CC2)n1)C(F)(F)F` (mixture of isomers) [Compound 99, 3-(4,6-Bis(((R)-1,1,1-trifluoropropan-2-yl)amino)-1,3,5-triazin-2-yl)-6-chloro-2-fluoro-cyclohex-2-en-1-ol], the IC50 on IDH2-R140Q is 553 nM; against IDH1-R132H, 938 nM.
On the same counts, the results for `CC(C)(C)ONc1nc(Nc2ccnc(Cl)c2)nc(C2=C(F)C(O)CCC2)n1` (stereo not drawn) [Compound 47] are 59 nM and 5640 nM.
For `CCCONc1nc(Nc2ccnc(C(F)(F)F)c2)nc(C2=C(F)C(O)C(F)(F)CC2)n1` (stereo not drawn) [Compound 217] the same measures were 69 nM and over 10000 nM.
As to `[2H]C([2H])([2H])C([2H])(Nc1nc(Nc2ccnc(C(F)(F)F)c2)nc(C2=C(F)C(O)CCC2)n1)C([2H])([2H])[2H]` (stereo not drawn) [Compound 54], the figures for the IC50 on IDH2-R140Q and against IDH1-R132H were 15 nM and 1680 nM, respectively.
`C[C@@H](Nc1nc(N[C@H](C)C(F)(F)F)nc(C2=C(F)C(=O)C(F)CC2)n1)C(F)(F)F` (mixture of isomers) [Compound 242, 3-(4,6-Bis(((R)-1,1,1-trifluoropropan-2-yl)amino)-1,3,5-triazin-2-yl)-2,6-difluoro-cyclohex-2-en-1-one]: the IC50 on IDH2-R140Q amounted to 802 nM; at IDH1-R132H, 3520 nM.
